PubChem BioAssay AID1918994 (Molecular Pharmacology Branch, DTP, NCI, 2023)
Where “and” joins values, the source holds several entries; their conditions need not be identical. Identical values can stand only once.

System: 292921-168-R-J2-PDC complex spheroid growth
Test: Anticancer human tumor 292921-168-R-J2-PDC patient-derived pancreatic carcinoma cell line growth inhibition [AhR]
Details: for viability, T/C: stronger effect = lower value
In short: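 Complex tumor spheroids co-cultured with HUVEC and human MSC stroma; AhR antagonists tested in combination with standard-of-care and investigational agents. Top concentration at or near clinical Cmax (else 10 microM), half-log dilutions; growth expressed as percent test/control.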

[1] = curve of first compound, second compound 0.1 µM
[2] = curve of first compound, second compound 0.316 µM
[3] = curve of first compound, second compound 1 µM
[4] = curve of first compound, second compound 3.16 µM
[5] = curve of first compound, second compound 10 µM
[6] = second compound 0.1 µM, first compound 0.0316 µM
[7] = second compound 0.1 µM, first compound 0.1 µM
[8] = second compound 0.1 µM, first compound 0.316 µM
[9] = second compound 0.1 µM, first compound 1 µM
[10] = second compound 0.1 µM, first compound 3.16 µM
[11] = second compound 0.1 µM, first compound 10 µM
[12] = second compound 0.316 µM, first compound 0.0316 µM
[13] = second compound 0.316 µM, first compound 0.1 µM
[14] = second compound 0.316 µM, first compound 0.316 µM
[15] = second compound 0.316 µM, first compound 1 µM
[16] = second compound 0.316 µM, first compound 3.16 µM
[17] = second compound 0.316 µM, first compound 10 µM
[18] = second compound 1 µM, first compound 0.0316 µM
[19] = second compound 1 µM, first compound 0.1 µM
[20] = second compound 1 µM, first compound 0.316 µM
[21] = second compound 1 µM, first compound 1 µM
[22] = second compound 1 µM, first compound 3.16 µM
[23] = second compound 1 µM, first compound 10 µM
[24] = second compound 3.16 µM, first compound 0.0316 µM
[25] = second compound 3.16 µM, first compound 0.1 µM
[26] = second compound 3.16 µM, first compound 0.316 µM
[27] = second compound 3.16 µM, first compound 1 µM
[28] = second compound 3.16 µM, first compound 3.16 µM
[29] = second compound 3.16 µM, first compound 10 µM
[30] = second compound 10 µM, first compound 0.0316 µM
[31] = second compound 10 µM, first compound 0.1 µM
[32] = second compound 10 µM, first compound 0.316 µM
[33] = second compound 10 µM, first compound 1 µM
[34] = second compound 10 µM, first compound 3.16 µM
[35] = second compound 10 µM, first compound 10 µM
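Further: spheroids exposed to compounds for seven days after three days of growth.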

Question: Which results are given for `NS(=O)(=O)OCC1CC(n2ccc3c(NC4CCc5ccccc54)ncnc32)CC1O` (configuration not stated)?
Answer: viability, T/C (compound 0.0316 µM): 126% and 115% and 113%; viability, T/C (compound 0.1 µM): 106% and 81.2% and 99.9%; viability, T/C (compound 0.316 µM): 27.1% and 16.2% and 25.9%; viability, T/C (compound 1 µM): 6.6% and 3.53% and 5.82%; viability, T/C (compound 3.16 µM): 5.73% and 3.02% and 4.02%; viability, T/C (compound 10 µM): 5.17% and 3.01% and 3.79%; IC50 (curve of compound): 226 nM and 174 nM and 217 nM

Question: What does the source list for `CC1(C)CCC(CN2CCN(c3ccc(C(=O)NS(=O)(=O)c4ccc(NCC5CCOCC5)c([N+](=O)[O-])c4)c(Oc4cnc5[nH]ccc5c4)c3)CC2)=C(c2ccc(Cl)cc2)C1` + Cc1cncc(-c2nc(NCCc3c[nH]c4ccccc34)c3ncn(C(C)C)c3n2)c1?
Answer: IC50 [1]: 6870 nM; IC50 [2]: 6720 nM; IC50 [3]: 6790 nM; IC50 [4]: 5560 nM; IC50 [5]: 3330 nM; viability, T/C [6]: 101%; viability, T/C [7]: 96.2%; viability, T/C [8]: 92.9%; viability, T/C [9]: 105%; viability, T/C [10]: 99.4%; viability, T/C [11]: 26.2%; viability, T/C [12]: 96.6%; viability, T/C [13]: 104%; viability, T/C [14]: 105%; viability, T/C [15]: 90.6%; viability, T/C [16]: 95.1%; viability, T/C [17]: 26.1%; viability, T/C [18]: 80.2%; viability, T/C [19]: 91.7%; viability, T/C [20]: 90.1%; viability, T/C [21]: 96.5%; viability, T/C [22]: 102%; viability, T/C [23]: 28.6%; viability, T/C [24]: 67.9%; viability, T/C [25]: 76.3%; viability, T/C [26]: 80.6%; viability, T/C [27]: 77.6%; viability, T/C [28]: 79.7%; viability, T/C [29]: 22.3%; viability, T/C [30]: 54.9%; viability, T/C [31]: 52.7%; viability, T/C [32]: 52.9%; viability, T/C [33]: 50%; viability, T/C [34]: 51.4%; viability, T/C [35]: 26.8%

Question: `CC(C)CC(NC(=O)C(Cc1ccccc1)NC(=O)c1cnccn1)B(O)O` (configuration not stated) + Cc1ccccc1N=Nc1ccc(NC(=O)c2ccnn2C)c(C)c1 was tested. Which IC50 [1] did it give?
Answer: 6.4 nM

Question: What about the IC50 [2] of the same molecule?
Answer: 6.09 nM

Question: And the IC50 [3]?
Answer: 5.95 nM

Question: What about the IC50 [4] of the same molecule?
Answer: 5.13 nM

Question: And the IC50 [5]?
Answer: 3.97 nM

Question: And the viability, T/C (second compound 0.1 µM, first compound 0.000949 µM)?
Answer: 91.6%

Question: And the viability, T/C (second compound 0.1 µM, first compound 0.003 µM)?
Answer: 110%

Question: What about the viability, T/C (second compound 0.1 µM, first compound 0.00949 µM) of the same molecule?
Answer: 23.4%

Question: And the viability, T/C (second compound 0.1 µM, first compound 0.03 µM)?
Answer: 1.67%

Question: And the viability, T/C (second compound 0.1 µM, first compound 0.0949 µM)?
Answer: 0.43%

Question: And the viability, T/C (second compound 0.1 µM, first compound 0.3 µM)?
Answer: 0.32%

Question: What about the viability, T/C (second compound 0.316 µM, first compound 0.000949 µM) of the same molecule?
Answer: 82%

Question: What about the viability, T/C (second compound 0.316 µM, first compound 0.003 µM) of the same molecule?
Answer: 102%

Question: What about the viability, T/C (second compound 0.316 µM, first compound 0.00949 µM) of the same molecule?
Answer: 23.9%

Question: And the viability, T/C (second compound 0.316 µM, first compound 0.03 µM)?
Answer: 1.24%

Question: What about the viability, T/C (second compound 0.316 µM, first compound 0.0949 µM) of the same molecule?
Answer: 3.16%

Question: And the viability, T/C (second compound 0.316 µM, first compound 0.3 µM)?
Answer: 0.68%

Question: What about the viability, T/C (second compound 1 µM, first compound 0.000949 µM) of the same molecule?
Answer: 82.3%

Question: What about the viability, T/C (second compound 1 µM, first compound 0.003 µM) of the same molecule?
Answer: 94.3%

Question: What about the viability, T/C (second compound 1 µM, first compound 0.00949 µM) of the same molecule?
Answer: 23.8%

Question: What about the viability, T/C (second compound 1 µM, first compound 0.03 µM) of the same molecule?
Answer: 1.24%

Question: What about the viability, T/C (second compound 1 µM, first compound 0.0949 µM) of the same molecule?
Answer: 0.41%

Question: And the viability, T/C (second compound 1 µM, first compound 0.3 µM)?
Answer: 0.93%

Question: What about the viability, T/C (second compound 3.16 µM, first compound 0.000949 µM) of the same molecule?
Answer: 77.5%

Question: And the viability, T/C (second compound 3.16 µM, first compound 0.003 µM)?
Answer: 82.8%

Question: What about the viability, T/C (second compound 3.16 µM, first compound 0.00949 µM) of the same molecule?
Answer: 15.3%

Question: And the viability, T/C (second compound 3.16 µM, first compound 0.03 µM)?
Answer: 1.68%

Question: What about the viability, T/C (second compound 3.16 µM, first compound 0.0949 µM) of the same molecule?
Answer: 2.65%

Question: What about the viability, T/C (second compound 3.16 µM, first compound 0.3 µM) of the same molecule?
Answer: 0.81%

Question: What about the viability, T/C (second compound 10 µM, first compound 0.000949 µM) of the same molecule?
Answer: 59.9%

Question: What about the viability, T/C (second compound 10 µM, first compound 0.003 µM) of the same molecule?
Answer: 62%

Question: And the viability, T/C (second compound 10 µM, first compound 0.00949 µM)?
Answer: 15.7%

Question: What about the viability, T/C (second compound 10 µM, first compound 0.03 µM) of the same molecule?
Answer: 1.7%

Question: What about the viability, T/C (second compound 10 µM, first compound 0.0949 µM) of the same molecule?
Answer: 1.05%

Question: What about the viability, T/C (second compound 10 µM, first compound 0.3 µM) of the same molecule?
Answer: 0.32%

Question: Which results are given for `O=C(C=Cc1cccc(S(=O)(=O)Nc2ccccc2)c1)NO` + Cc1ccccc1N=Nc1ccc(NC(=O)c2ccnn2C)c(C)c1?
Answer: IC50 [1]: 579 nM; IC50 [2]: 697 nM; IC50 [3]: 520 nM; IC50 [4]: 285 nM; IC50 [5]: < 31.6 nM; viability, T/C [6]: 69%; viability, T/C [7]: 64%; viability, T/C [8]: 52%; viability, T/C [9]: 39.7%; viability, T/C [10]: 38.2%; viability, T/C [11]: 3.35%; viability, T/C [12]: 74.9%; viability, T/C [13]: 68.2%; viability, T/C [14]: 55.4%; viability, T/C [15]: 43.2%; viability, T/C [16]: 36.9%; viability, T/C [17]: 6.05%; viability, T/C [18]: 68.8%; viability, T/C [19]: 59.1%; viability, T/C [20]: 54.8%; viability, T/C [21]: 38.8%; viability, T/C [22]: 36.1%; viability, T/C [23]: 3.74%; viability, T/C [24]: 65.8%; viability, T/C [25]: 49%; viability, T/C [26]: 49.1%; viability, T/C [27]: 34.9%; viability, T/C [28]: 35.2%; viability, T/C [29]: 2.03%; viability, T/C [30]: 44.2%; viability, T/C [31]: 41.6%; viability, T/C [32]: 36.9%; viability, T/C [33]: 33.8%; viability, T/C [34]: 29.1%; viability, T/C [35]: 4.17%

Question: Which results are given for `CC1COCCN1c1cc(C2(S(C)(=N)=O)CC2)nc(-c2ccnc3[nH]ccc23)n1` (configuration not stated) + CC(CO)NC(=O)c1cc(-c2ccc(Cl)cc2)nn(-c2cnn(C)c2)c1=O?
Answer: IC50 [1]: 3200 nM; IC50 [2]: 3000 nM; IC50 [3]: 3620 nM; IC50 [4]: 2940 nM; IC50 [5]: 1740 nM; viability, T/C [6]: 106%; viability, T/C [7]: 114%; viability, T/C [8]: 105%; viability, T/C [9]: 82.9%; viability, T/C [10]: 51%; viability, T/C [11]: 34.4%; viability, T/C [12]: 107%; viability, T/C [13]: 104%; viability, T/C [14]: 105%; viability, T/C [15]: 87.3%; viability, T/C [16]: 48.4%; viability, T/C [17]: 31.9%; viability, T/C [18]: 114%; viability, T/C [19]: 107%; viability, T/C [20]: 99.5%; viability, T/C [21]: 89.4%; viability, T/C [22]: 50.8%; viability, T/C [23]: 31.2%; viability, T/C [24]: 102%; viability, T/C [25]: 88.1%; viability, T/C [26]: 94.9%; viability, T/C [27]: 84.3%; viability, T/C [28]: 47.7%; viability, T/C [29]: 28.4%; viability, T/C [30]: 78.7%; viability, T/C [31]: 74.2%; viability, T/C [32]: 80.8%; viability, T/C [33]: 63.9%; viability, T/C [34]: 34.7%; viability, T/C [35]: 25.4%
